{"source": "patent US20110306663A1", "about": "(Baylor Research Institute, priority 2010, published 2011)", "key": {"[1]": {"tested_on": "patients with APBD and GBE1 deficiency", "assay": "6 minutes walk test, open-label triheptanoin study", "assay_type": "in vivo, human", "description": "(§1) Ages ranged from 51-66 years and all were Ashkenazi Jewish. Three patients were able to walk independently, one walked with the help of a walker and a 5th patient was wheelchair bound.\n(§2) Baseline evaluation based on the criteria described in Table I, herein below was performed every 3 months.\n(§3) The outcome measures included: (i) the 6 minutes walk test and (ii) motion capture gait analysis and (iii) SF-36 Health Survey Questionnaire. […] Maximal improvement seemed to occur within the first 6 months of treatment (FIG. 2). […] Physical Function score increased in 4/5 patients on the SF-36 health survey questionnaire."}, "[2]": {"tested_on": "patient with pyruvate carboxylase deficiency", "settings": "one patient; cited from earlier work"}, "[3]": {"tested_on": "patients with APBD and GBE1 deficiency", "assay": "Motion capture gait analysis, open-label triheptanoin study", "assay_type": "in vivo, human", "description": "as §1, §2, §3"}, "[4]": {"tested_on": "patients with APBD and GBE1 deficiency", "assay": "Urinary organic acids and blood acylcarnitine profile analyses", "assay_type": "in vivo, human", "description": "(§4) In the event of an organic acid abnormality such as an excessive urinary excretion of propionic and/or methylmalonic acid occur, biotin and/or vitamin B12 respectively were added to the regimen and normalization of the organic acid and acylcarnitine profile was verified. Should that not be sufficient the dose was reduced until normalization occurs. If still abnormal, patient was be excluded from the study.\nSafety was also monitored throughout the study by urinary organic acids and blood acylcarnitine profile analyses."}, "[5]": {"tested_on": "patient with adult-onset acid maltase deficiency (Pompe disease)", "settings": "one patient; cited from earlier work"}, "[6]": {"tested_on": "patients with APBD and GBE1 deficiency", "assay": "SF-36 Health Survey Questionnaire, open-label triheptanoin study", "assay_type": "in vivo, human", "description": "as §1, §2, §3"}, "[7]": {"tested_on": "patients with APBD and GBE1 deficiency", "assay": "Adverse event assessment, open-label triheptanoin study", "assay_type": "in vivo, human", "settings": "5 patients; for Adverse events (AE): mean 8.2 months of treatment", "description": "as §1, §4\nTwo adverse events not related to the triheptanoin were a broken ankle in one patient and wound treatment in another. […] Safety was also monitored throughout the study by urinary organic acids and blood acylcarnitine profile analyses. Changes in metabolic tests related the ingestion of triheptanoin were identified."}, "[8]": {"tested_on": "patients with long chain fatty acid oxidation defects", "settings": "30% to 35% of total daily caloric intake; cited from earlier work"}, "[9]": {"settings": "5 patients, within 6 months of treatment"}}, "note": "Values joined by “and” are separate entries in the source; they are usually repeats but may differ in a detail not shown here. Equal entries are not always repeated.", "data": [{"smiles": "CCCCCCC(=O)OCC(COC(=O)CCCCCC)OC(=O)CCCCCC", "note": "[triheptanoin, glyceryl triheptanoate]", "values": [{"measurement": "Six minute walk test distance on treatment", "setting": "[1]; 5 patients, mean ± SD after treatment (from 1246±642), p=0.06", "result": "1376±692", "unit": "feet"}, {"measurement": "Six minute walk test mean increase", "setting": "[1]; 5 patients, triheptanoin oil 1-2 g/fg/24 hours in 4 divided doses, 1246±642 at start, p=0.06", "result": 130, "unit": "feet"}, {"measurement": "Distance walked during 6 minutes (6 minutes walk test)", "setting": "[1]; [9]", "result": "significant improvement"}, {"measurement": "Time of maximal improvement in 6-minute walk test", "setting": "[1]; FIG. 2", "result": "≤ 6", "unit": "months"}, {"measurement": "6-minute walk test mean improvement", "setting": "[1]; mean follow up of 8.5 months, n=5, p=0.06", "result": 10, "unit": "%"}, {"measurement": "6-minute walk test improvement, one patient", "setting": "[1]; one patient, 25 months time point", "result": "126 feet and 9.5%"}, {"measurement": "Motor performance and quality of life", "setting": "[1]; open-label study, 5 patients", "result": "evidence of improved motor performance as well as quality of life"}, {"measurement": "Glutamine and GABA in the CSF", "setting": "[2]", "result": "normalization"}, {"measurement": "Gait analysis: cadence, support time, stride length, step length and walking speed", "setting": "[3]; 3 patients who were able to walk unaided", "result": "improvement"}, {"measurement": "Gait analysis", "setting": "[3]; [9]", "result": "stability or slight improvement"}, {"measurement": "Catabolism of triheptanoin", "setting": "[4]; conclusion from urine and plasma findings", "result": "catabolized completely without accumulation of secondary metabolites"}, {"measurement": "Mitochondrial overload from triheptanoin-derived metabolites", "setting": "[4]; urinary organic acids", "result": "no evidence of mitochondrial overload"}, {"measurement": "Urinary excretion of derivatives of heptanoate oxidation (pimelate, 3-hydroxypentanoate, 3-ketopentanoate, 3-hydroxypropionate, methylcitrate)", "setting": "[4]; urine", "result": "detected"}, {"measurement": "Clinical response", "setting": "[5]", "result": "markedly improved"}, {"measurement": "Patients with increased Physical Function score on the SF-36", "setting": "[6]; 5 patients", "result": "4/5"}, {"measurement": "SF-36 Health Survey Questionnaire scores", "setting": "[6]; FIG. 3", "result": "tended to improve in parallel with motor score"}, {"measurement": "AE remotely linked to triheptanoin", "setting": "[7]", "result": "rectal pain reported by one patient"}, {"measurement": "Serious AE", "setting": "[7]", "result": "no serious AE related to triheptanoin oil"}, {"measurement": "Adverse events (AE)", "setting": "[7]", "result": "No adverse events (AE) were reported"}, {"measurement": "Adverse events (AE)", "setting": "[7]; listed as triheptanoin oil", "result": "No significant adverse events occurred"}, {"measurement": "Clinical outcome of diet treatment", "setting": "[8]", "result": "decreased episodes of rhabdomyolysis, improvement in pain and cardiac function"}, {"measurement": "Propionyl overload", "setting": "[8]", "result": "No propionyl overload occurred"}]}]}
